Assays:
Botrytis cinerea = assay: In vivo preventive test on Botrytis cinerea (grey mould); details: gherkin plants, preventive spray, 500 ppm, grading 4 to 5 days after contamination
Method: Example: In Vivo Preventive Test on Botrytis cinerea (Grey Mould) […] Gherkin plants (“Vert petit de Paris” variety), sown in starter cups on a 50/50 peat soil-pozzolana substrate and grown at 24° C., are treated at the Z11 cotyledon stage by spraying with the active ingredient prepared as described above. Plants, used as controls, are treated with the mixture of acetone/tween/DMSO/water not containing the active material. After 24 hours, the plants are contaminated by spraying the cotyledons with an aqueous suspension of cryopreserved Botrytis cinerea spores (50 000 spores per ml). The spores are suspended in a nutrient solution composed of 10 g/L of PDB, 50 g/L of D-Fructose, 2 g/L of NH4NO3 and 1 g/L of KH2PO4. […] Grading (% of efficacy) is carried out 4 to 5 days after the contamination, in comparison with the control plants. Under these conditions, good (at least 70%) or total protection is observed at a dose of 500 ppm with the following compounds: […]

Pyrenophora teres = assay: In vivo preventive test on Pyrenophora teres (net blotch on barley); details: barley plants, preventive spray, 500 ppm, grading 14 days after contamination
Method: Example: In Vivo Preventive Test on Pyrenophora teres (Net Blotch on Barley) […] Barley plants (“Plaisant” variety), sown in starter cups on a 50/50 peat soil-pozzolana substrate and grown at 22° C., are treated at the 1-leaf stage (10 cm height) by spraying with the active ingredient prepared as described above. Plants, used as controls, are treated with the mixture of acetone/tween/DMSO/water not containing the active material. After 24 hours, the plants are contaminated by spraying the leaves with an aqueous suspension of Pyrenophora teres spores (12 000 spores per ml). The spores are collected from a 12-day-old culture. […] Grading (% of efficacy) is carried out 14 days after the contamination, in comparison with the control plants. Under these conditions, good (at least 70%) or total protection is observed at a dose of 500 ppm with the following compounds: […]

Puccinia recondita = assay: In vivo preventive test on Puccinia recondita (brown rust on wheat); details: wheat plants, preventive spray, 500 ppm, grading 12 days after contamination
Method: Example: In Vivo Preventive Test on Puccinia recondita (Brown Rust on Wheat) […] Wheat plants (“Scipion” variety), sown in starter cups on a 50/50 peat soil-pozzolana substrate and grown at 22° C., are treated at the 1-leaf stage (10 cm height) by spraying with the active ingredient prepared as described above. Plants, used as controls, are treated with the mixture of acetone/tween/DMSO/water not containing the active material. After 24 hours, the plants are contaminated by spraying the leaves with an aqueous suspension of Puccinia […] spores (100 000 spores per ml). […] Grading (% of efficacy) is carried out 12 days after the contamination, in comparison with the control plants. Under these conditions, good (at least 70%) or total protection is observed at a dose of 500 ppm with the following compounds: […]

Septoria tritici = assay: In vivo preventive test on Septoria tritici (leaf spot on wheat); details: wheat plants, preventive spray, 500 ppm, grading 24 days after contamination
Method: Example: In Vivo Preventive Test on Septoria tritici (Leaf Spot on Wheat) […] Wheat plants (“Scipion” variety), sown in starter cups on a 50/50 peat soil-pozzolana substrate and grown at 22° C., are treated at the 1-leaf stage (10 cm height) by spraying with the active ingredient prepared as described above. Plants, used as controls, are treated with the mixture of acetone/tween/DMSO/water not containing the active material. After 24 hours, the plants are contaminated by spraying the leaves with an aqueous suspension of cryopreserved Septoria tritici spores (500 000 spores per ml). […] Grading (% of efficacy) is carried out 24 days after the contamination, in comparison with the control plants. Under these conditions, good (at least 70%) or total protection is observed at a dose of 500 ppm with the following compounds: […]

Sphaerotheca fuliginea = assay: In vivo preventive test on Sphaerotheca fuliginea (powdery mildew on cucurbits); details: gherkin plants, preventive spray, 500 ppm, grading 12 days after contamination
Method: Example: In Vivo Preventive Test on Sphaerotheca fuliginea (Powdery Mildew on Cucurbits) […] Gherkin plants (“Vert petit de Paris” variety), sown in starter cups on a 50/50 peat soil-pozzolana substrate and grown at 24° C., are treated at the Z11 cotyledon stage by spraying with the active ingredient prepared as described above. Plants, used as controls, are treated with the mixture of acetone/tween/DMSO/water not containing the active material. After 24 hours, the plants are contaminated by spraying the cotyledons with an aqueous suspension of Sphaerotheca fuliginea spores (100 000 spores per ml). The spores are collected from infected plants. […] Grading (% of efficacy) is carried out 12 days after the contamination, in comparison with the control plants. Under these conditions, good (at least 70%) or total protection is observed at a dose of 500 ppm with the following compounds: […]

Uromyces appendiculatus = assay: In vivo preventive test on Uromyces appendiculatus (bean rust); details: bean plants, preventive spray, 500 ppm, grading 11 days after contamination
Method: Example: In Vivo Preventive Test on Uromyces appendiculatus (Bean Rust) […] Bean plants (“Saxa” variety), sown in starter cups on a 50/50 peat soil-pozzolana substrate and grown at 24° C., are treated at the 2-leaf stage (9 cm height) by spraying with the active ingredient prepared as described above. Plants, used as controls, are treated with the mixture of acetone/tween/DMSO/water not containing the active material. After 24 hours, the plants are contaminated by spraying the leaves with an aqueous suspension of Uromyces appendiculatus spores (150 000 spores per ml). […] Grading (% of efficacy) is carried out 11 days after the contamination, in comparison with the control plants. Under these conditions, good (at least 70%) or total protection is observed at a dose of 500 ppm with the following compounds: […]

[1] = logP by HPLC on reversed phase columns (EEC directive 79/831 Annex V.A8); details: method [a]: LC-MS at pH 2.7, 0.1% formic acid in water / acetonitrile gradient 10% to 95%
Alternaria brassicae = assay: In vivo preventive test on Alternaria brassicae (leaf spot on radish); details: radish plants, preventive spray, 500 ppm, grading 6 days after contamination
Method: Example: In Vivo Preventive Test on Alternaria brassicae (Leaf Spot on Radish) […] Radish plants (“Pernod Clair” variety), sown in starter cups on a 50/50 peat soil-pozzolana substrate and grown at 17° C., are treated at the cotyledon stage by spraying with the active ingredient prepared as described above. Plants, used as controls, are treated with the mixture of acetone/tween/DMSO/water not containing the active material. After 24 hours, the plants are contaminated by spraying the cotyledons with an aqueous suspension of Alternaria brassicae spores (50 000 spores per ml). The spores are collected from a 15-day-old culture. […] Grading (% of efficacy) is carried out 6 days after the contamination, in comparison with the control plants. Under these conditions, good (at least 70%) or total protection is observed at a dose of 500 ppm with the following compounds: […]

Phakopsora pachyrhizi = assay: In vivo Phakopsora test (soybeans)/preventive; details: preventive, 100 ppm of active ingredient, evaluated 7 days after inoculation
Method: Example: In Vivo Phakopsora Test (Soybeans)/Preventive Solvent: 24.5 parts by weight of acetone • 24.5 parts by weight of dimethylacetamide Emulsifier: • 1 part by weight of alkylaryl polyglycol ether To produce a suitable preparation of active compound, 1 part by weight of active compound is mixed with the stated amounts of solvent and emulsifier, and the concentrate is diluted with water to the desired concentration. To test for preventive activity, young plants are sprayed with the preparation of active compound at the stated rate of application. After the spray coating has dried on, the plants are inoculated with an aqueous to spore suspension of the causal agent of soybean rust (Phakopsora pachyrhizi) and stay for 24 h without light in an incubation cabinet at approximately 24° C. and a relative atmospheric humidity of 95%.

Phytophthora infestans = type: in vivo; details: tomato plants, preventive spray, 500 ppm, grading 5 days after contamination
Pyricularia oryzae = type: in vivo; details: rice plants, preventive spray, 500 ppm, grading 6 days after contamination

Structure (SMILES)	Eff. % (Botrytis cinerea) [%]	Eff. % (Pyrenophora teres) [%]	Eff. % (Puccinia recondita) [%]	Eff. % (Septoria tritici) [%]	Eff. % (Sphaerotheca fuliginea) [%]	Eff. % (Uromyces appendiculatus) [%]	logP [1]	Eff. % (Alternaria brassicae) [%]	Eff. % (Phakopsora pachyrhizi) [%]	Eff. % (Phytophthora infestans) [%]	Eff. % (Pyricularia oryzae) [%]
CC#CCON=Cc1ccc(-c2ccccc2NC(=O)c2c(C(F)F)nn(C)c2F)cc1 [Example 21]	98	88	94	96	100	100	3.87[a]	–	–	–	–
CCON=Cc1ccc(-c2ccccc2NC(=O)c2c(C(F)F)nn(C)c2Cl)cc1C [Example 39]	99	100	97	92	100	100	4.48[a]	94	–	–	–
CC#CCON=C(C)c1ccc(-c2ccccc2NC(=O)c2c(C(F)F)nn(C)c2F)cc1 [Example 13]	80	88	100	80	100	100	4.11[a]	–	100	–	–
C#CCON=C(C)c1ccc(-c2ccccc2NC(=O)c2c(C(F)F)nn(C)c2Cl)cc1 [Example 3]	–	–	98	–	70	100	4.06[a]	–	–	99	–
C#CCON=C(C)c1ccc(-c2ccccc2NC(=O)c2c(C(F)F)nn(C)c2F)cc1 [Example 12]	85	80	98	75	96	100	3.8[a]	97	–	–	–
C#CCON=Cc1ccc(-c2ccccc2NC(=O)c2c(C(F)F)nn(C)c2Cl)cc1 [Example 5]	100	86	100	–	100	100	3.79[a]	88	–	–	90
CC#CCON=Cc1ccc(-c2ccccc2NC(=O)c2c(C(F)F)nn(C)c2Cl)cc1 [Example 22]	98	–	98	96	100	100	4.13[a]	75	–	–	–
CC#CCON=C(C)c1ccc(-c2ccccc2NC(=O)c2c(C(F)F)nn(C)c2Cl)cc1 [Example 27]	–	–	98	70	100	100	4.41[a]	–	100	–	–
CON=Cc1ccc(-c2ccccc2NC(=O)c2c(C(F)F)nn(C)c2Cl)cc1C [Example 25]	98	100	100	75	100	94	4.04[a]	94	–	–	–
CCON=Cc1ccc(-c2ccccc2NC(=O)c2c(C(F)F)nn(C)c2Cl)cc1 [Example 6]	93	100	100	–	100	100	4.19[a]	97	–	–	100
CON=Cc1ccc(-c2ccccc2NC(=O)c2c(C(F)F)nn(C)c2Cl)cc1C(F)(F)F [Example 24]	–	97	100	92	100	100	4.25[a]	92	–	–	–
CCON=Cc1ccc(-c2ccccc2NC(=O)c2c(C(F)F)nn(C)c2Cl)cc1F [Example 18]	70	100	97	75	100	100	4.22[a]	94	–	–	–
CON=Cc1ccc(-c2cc(F)ccc2NC(=O)c2c(C(F)F)nn(C)c2Cl)cc1 [Example 30]	–	93	100	97	100	100	3.66[a]	97	–	–	–
CCON=Cc1ccc(-c2c(F)cccc2NC(=O)c2c(C(F)F)nn(C)c2Cl)cc1 [Example 40]	–	90	97	75	100	100	4.18[a]	94	–	–	–

— patent US9765034B2, “5-halogenopyrazole biphenylcarboxamides” (BAYER CROPSCIENCE AG, priority 2012, dated 2017)
